What was measured:
PltM [1] = biological target: T1, PltM (Pseudomonas protegens, UniProt Q4KCZ3); experiment: In vitro PltM halogenation assay with a single halide salt, substrate profile (Assay 1a-1d), LC-MS; type: biochemical
Description: The halogenation assays were carried out similarly to a recently described procedure. For substrate profile determination (Assay 1), 100 μL reactions were carried out in 30 mM sodium phosphate pH 7.4. As a halide source, 200 mM of either NaF (Assay 1a), NaCl (Assay 1b), NaBr (Assay 1c), or NaI (Assay 1d) was used. To ensure that PltM is incapable of fluorinating, an additional 200 μL reaction with 300 mM NaF was run. A 200 μL reaction with 400 mM NaBr was also run to ensure no additional bromination reaction occurred. Each reaction also contained a specified substrate (0.5 mM), FAD (0.2 mM), NADPH (5 mM), PltM (5.5 μM), and SsuE (5.0 μM). The reactions were initiated by adding NADPH under N2. The reaction tubes were tightly closed to avoid contact with air. The reaction mixtures were incubated at 25° C. for 3 h prior to extraction with EtOAc (4×100 μL). The organic layer was dried by a gentle flow of air, and the residue was dissolved in MeOH to prepare 1-10 μg/mL samples for LC-MS analysis.
(§1) The halogenation reaction products were analyzed by HPLC or LC-MS by injecting 10 μL of each sample. The compounds were separated by Reversed-phase HPLC at the flow rate of 0.2 mL/min by using the following program: eluent A=H2O; eluent B=MeCN; gradient=2% B for 5 min, increase to 100% B over a 30 min period, stay at 100% B for 9 min, decrease to 2% B over a 1 min period, and re-equilibrate the column at 2% B for 30 min.
(§2) For HPLC analysis, the molecules were observed by absorbance at λ=275 nm as described above. As necessary, the following mass spectrometer was operated in negative and positive modes with the following parameters: For negative mode, mass range, 80-600 m/z in profile mode; temperature, 550° C. and ion spray voltage floating, −4500 V, and for positive mode, mass range, 80-600 m/z in profile mode; temperature, 550° C. and ion spray voltage floating, 4500 V. The presence of each compound was analyzed by extracted ion chromatograph (XIC) with the expected mass ±0.05 Da for Assay 1 and Assay 2 and ±0.005 Da for Assay 3 (FIGS. 2A-C, 8-13, and 17-37; Tables 3-4 and 7).

PltM [2] = biological target: T1, PltM; experiment: Optimized in vitro PltM halogenation assay (PltM, SsuE, GDH), overnight overall yield by HPLC; type: biochemical; details: optimized in vitro conditions
Description: To increase production of halogenated molecules and decrease the amount of NADPH required, the above in vitro assay was optimized by using an additional enzyme, glucose dehydrogenase (GDH). […] The overall yield of halogenation products was determined for reactions run overnight for several substrates (Table 8). Conversion of the substrate to halogenated products was monitored by HPLC at λ=275-320 nm, where the absorbance of molecules is not affected by halogenation, and quantified as fraction of reaction species (%).
The time course experiments were performed in duplicate. Compound 1 was unstable under these optimized conditions, and it was not tested. The in vitro analysis of K87A mutant was performed overnight in 100 μL reaction mixture by using the compound 11 as a substrate. Wild-type PltM was used as a positive control, and no enzyme reaction was used as a negative control. In all above reactions, the compounds were extracted with EtOAc (4×100 μL) and dried under gentle air flow.
as §1, §2

PltM [3] = experiment: Cell-based activity assay of PltM (Assay 3), wild-type PltM; set-up: species or system E. coli BL21 (DE3); details: cells expressing wild-type PltM; 1 added to culture
Description: (§3) E. coli BL21 (DE3) cells were transformed with ppltM-pET28a, ppltMK87A-pET28a, ppltML111Y-pET28a, ppltMS404Y-pET28a, and ppltA-pET28a. The ppltA-pET28a plasmid overexpressing the halogenase PltA whose substrate is pyrrolyl-S-PltL (a peptidyl carrier protein-linked pyrrole) was used as a negative control. Five colonies from each transformant were cultured in 2×500 mL of LB medium (for ppltM-pET28a, ppltML111Y-pET28a, and ppltMS404Y-pET28a) and 1×500 mL of LB medium (for ppltMK87A-pET28a and ppltA-pET28a) with 50 μg/mL kanamycin at 37° C. and 200 rpm until attenuance of 0.2 at 600 nm. The cultures were then moved to 25° C. until attenuance of 0.5. Protein expression was induced by adding 0.2 mM IPTG to all […] flasks, and the cultures were incubated with shaking for 1 h. 12.5 μg/mL of compound 1 was added to 1×500 mL of LB medium containing ppltM-pET28a, ppltMK87A-pET28a, ppltML111Y-pET28a, ppltMS404Y-pET28a, and ppltA-pET28a. Compound 1 was not added to the three remaining flasks (negative controls). After additional incubation for 20 h, the cells were pelleted at 5,000 g for 10 min, and the supernatant was collected. The supernatant was extracted with EtOAc (3×330 mL), which was dried in vacuo. […]
(§4) The halogenation reaction products were analyzed by HPLC or LC-MS by injecting 10 μL of each sample. […]
(§5) For HPLC analysis, the molecules were observed by absorbance at λ=275 nm as described above. […]

PltM K87A = experiment: Cell-based activity assay (Assay 3), PltM K87A; set-up: species or system E. coli BL21 (DE3); details: cultures expressing PltM K87A
Description: as §3, §4, §5

PltM L111Y = experiment: Cell-based activity assay (Assay 3), PltM L111Y; set-up: species or system E. coli BL21 (DE3); details: cells expressing L111Y mutant
Description: as §3, §4, §5

PltM S404Y = experiment: Cell-based activity assay (Assay 3), PltM S404Y; set-up: species or system E. coli BL21 (DE3); details: cells expressing S404Y mutant
Description: as §3, §4, §5

T1 sequence (Q4KCZ3 entry or part of it): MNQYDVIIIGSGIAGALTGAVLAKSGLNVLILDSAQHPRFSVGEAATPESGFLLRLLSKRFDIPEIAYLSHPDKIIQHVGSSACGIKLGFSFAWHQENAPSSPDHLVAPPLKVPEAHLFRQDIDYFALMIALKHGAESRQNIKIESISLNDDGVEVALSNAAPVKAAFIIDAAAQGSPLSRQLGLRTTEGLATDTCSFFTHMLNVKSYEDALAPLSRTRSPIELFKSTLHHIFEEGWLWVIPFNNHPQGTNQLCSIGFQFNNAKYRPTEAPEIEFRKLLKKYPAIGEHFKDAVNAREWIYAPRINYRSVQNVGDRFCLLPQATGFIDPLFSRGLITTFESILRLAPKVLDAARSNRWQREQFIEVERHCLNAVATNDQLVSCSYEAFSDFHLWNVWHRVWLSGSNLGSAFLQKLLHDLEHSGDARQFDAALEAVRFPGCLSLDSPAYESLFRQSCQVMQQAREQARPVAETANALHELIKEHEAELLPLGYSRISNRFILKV

## Oc1cc(O)cc(O)c1 [Compound 1, phloroglucinol]
PltM [1]; NaBr as halide source (Assay 1c)
  bromination by PltM (products identified by LC-MS): only mono-halogenation
PltM [1]; NaCl as halide source (Assay 1b)
  chlorination by PltM (products identified by LC-MS): Mono- and dihalogenation
PltM [1]; NaF as halide source (Assay 1a)
  fluorination by PltM (products identified by LC-MS): not fluorinated
PltM [1]; NaI as halide source (Assay 1d)
  iodination by PltM (products identified by LC-MS): Mono- and dihalogenation
PltM [2]
  stability under optimized reaction conditions: unstable
PltM [3]
  halogenation in fermentation culture: generated mono- and dichlorinated 1
PltM K87A
  halogenation in fermentation culture: No halogenated product was observed
PltM L111Y
  halogenation in fermentation culture: product yield was significantly reduced compared to wild-type
PltM S404Y
  halogenation in fermentation culture: product yield was significantly reduced compared to wild-type

Reference: US20200299671A1, “IMMOBILIZED MULTI-ENZYMATIC HALOGENATION SYSTEM” (priority 2019, published 2020)
